Values joined by “and” are separate entries in the source; they are usually repeats but may differ in a detail not shown here. Equal entries are not always repeated. Where two headings read alike, the source gives them in different places.
Biological target: T1, human Kv3.1 channels (hKv3.1) (Homo sapiens, UniProt P48547)
T1 sequence (P48547 1-501 limits assumed): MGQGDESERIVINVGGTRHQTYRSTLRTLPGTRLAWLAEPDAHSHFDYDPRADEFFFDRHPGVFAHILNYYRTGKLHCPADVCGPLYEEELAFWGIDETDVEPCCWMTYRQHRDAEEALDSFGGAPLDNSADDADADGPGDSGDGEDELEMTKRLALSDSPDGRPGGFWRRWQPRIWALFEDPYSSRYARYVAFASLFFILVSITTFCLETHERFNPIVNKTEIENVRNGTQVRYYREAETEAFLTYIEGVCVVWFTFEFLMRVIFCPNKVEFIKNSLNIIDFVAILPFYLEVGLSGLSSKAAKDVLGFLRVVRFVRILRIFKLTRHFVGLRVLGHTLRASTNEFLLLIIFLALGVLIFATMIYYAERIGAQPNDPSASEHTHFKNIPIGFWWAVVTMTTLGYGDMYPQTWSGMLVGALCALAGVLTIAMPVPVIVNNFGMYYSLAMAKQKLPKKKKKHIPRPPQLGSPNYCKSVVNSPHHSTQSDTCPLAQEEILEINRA
Test: Measurement of Kv3 channel modulation: Kv3.1 assay (IonWorks Quattro whole-cell electrophysiology)
Format: cell-based
Conditions: for Kv3.1 max R %: normalised to maximum effect of reference compound (50 microM); for EC50: read-out: Kv3.1 pEC50 (converted)

[1] = Table 2, Example compounds, rounded to one decimal place, some compounds with two data sets (n given in cell)

Row | SMILES | Kv3.1 max R % (Table 2, Example compounds) | EC50 [1] [nM] | EC50 (Table 5, Example compounds) [nM]
1 | Cc1ccc(Oc2ccc(-n3c(=O)[nH]c4cccnc43)cn2)cc1OC(F)(F)F [Example 4, 3-[6-[4-methyl-3-(trifluoromethoxy)phenoxy]-3-pyridyl]-1H-imidazo[4,5-b]pyridin-2-one] | 111% | 1260 | 1260
2 | O=c1[nH]c2cccnc2n1-c1cnc(Oc2cccc(OC(F)(F)F)c2)nc1 [Example 17, 3-[2-[3-(trifluoromethoxy)phenoxy]pyrimidin-5-yl]-1H-imidazo[4,5-b]pyridin-2-one] | 103% and 125% | 1260 | 1000
3 | Cc1ccc(Oc2ncc(-n3c(=O)[nH]c4cccnc43)cn2)cc1OC(F)(F)F [Example 32, 3-[2-[4-methyl-3-(trifluoromethoxy)phenoxy]pyrimidin-5-yl]-1H-imidazo[4,5-b]pyridin-2-one] | 174% | 1580 | 1580
